# Laboratory results as given in patent US20240299385A1 (ReWind Therapeutics NV, priority 2021, published 2024).
# pIC50: −log10 of the molar value.
# Biological target: T1, human GPR17 receptor (Homo sapiens, UniProt Q13304)
# T1 construct: host or cells: HEK-293
# Assay: Calcium mobilization functional assay (Fluo-8, FLIPR TETRA) in HEK-293 hGPR17 (Gα-q assay)
# Format: cell-based
# Conditions: antagonism of MDL29,951 (~EC80) induced Ca2+ signal; cell line (HEK-293 hGPR17 or HEK-293 Suchi5 hGPR17) not given
# Protocol: HEK-293 cells stably expressing the human GPR17 receptor (HEK-293 hGPR17) developed by Axxam (Bresso, Milan, Italy) were cultured at 37° C. in a humidified atmosphere of 5% CO2. Cells were grown in EMEM supplemented with FBS (10%), Penicillin/Streptomycin (1%), Ultraglutamine I (2 mM), puromycin (0.6 μg/mL), G418 (0.4 mg/mL), zeocin (50 μg/mL). This cell line was used to test the compound antagonistic activity by monitoring the Gα-q based signaling. Signaling via Gα-q leads to mobilization of calcium from internal stores. Elevated intracellular calcium levels can then be measured with calcium-sensitive fluorescent dyes (e.g., Fluo 8-No Wash Dye).
# GPR17 activation leads to both an increase in intracellular calcium (via Gα-q) and a decrease in cAMP levels (via Gα-i), implicating that both of these pathways play a role for in vivo function.
# Experiments were performed using the below cell lines, as described in part 1: • HEK-293 hGPR17 (used to study the compounds acting via Gα-q pathway) • HEK-293 Suchi5 hGPR17 (used to study the compounds acting via Gα-i pathway, where the Gα-i signaling is switched to a Gα-q signaling thanks to the Gα-i/q chimera Suchi5)
# GPR17 activation was able to induce an endoplasmic reticulum calcium (Ca^2+) store release in cytosol which could be measured using the fluorescent Ca^2+ sensitive dye Fluo-8 No Wash Dye as readout.
# HEK-293 hGPR17 and HEK-293 Suchi5 hGPR17 were seeded at a density of 15,000 cells/well into poly-D-lysine coated black 384-well plates with clear bottom in complete medium. Cells were incubated overnight at 37° C. in a humidified atmosphere of 5% CO2. Twenty-four hours after seeding, the culture medium was carefully removed manually and the cells were loaded for 60 minutes at room temperature with the Ca^2+ sensitive Fluo-8 No Wash Dye, according to manufacturer's instructions. Cells were then assayed using a fluorometric imaging plate reader (FLIPR^TETRA). Fluorescence (excitation: 470-495 nm; emission: 515-575 nm) was recorded during the experiment. […] After twenty minutes, a second injection of MDL29,951 at ˜EC80 (500 nM for HEK-293 hGPR17 and 2 nM for HEK-293 Suchi5 hGPR17) in assay buffer was performed at the FLIPR^TETRA and the signal of the emitted fluorescence was recorded for additional 2 minutes. All the compound injections and incubations were performed in duplicate. For data quality and data analysis the Screener® 16.0.6 (Genedata) software was used.
# T1 sequence (Q13304 whole entry): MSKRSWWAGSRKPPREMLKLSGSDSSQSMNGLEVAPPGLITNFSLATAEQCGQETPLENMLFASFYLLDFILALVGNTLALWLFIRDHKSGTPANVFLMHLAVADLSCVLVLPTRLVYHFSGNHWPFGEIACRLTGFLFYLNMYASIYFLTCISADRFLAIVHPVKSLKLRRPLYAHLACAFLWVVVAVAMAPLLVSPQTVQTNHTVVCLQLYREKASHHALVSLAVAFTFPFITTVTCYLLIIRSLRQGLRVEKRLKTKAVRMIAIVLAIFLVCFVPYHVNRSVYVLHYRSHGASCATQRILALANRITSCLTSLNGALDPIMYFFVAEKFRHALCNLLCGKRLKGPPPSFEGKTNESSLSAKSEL
row,pIC50,Structure (SMILES)
1,> 6.30,"N#Cc1ccc(NS(=O)(=O)c2c[nH]c(-c3ccccc3)c2)cc1F [Cpd 035, N-(4-cyano-3-fluoro-phenyl)-5-phenyl-1H-pyrrole-3-sulfonamide]"
2,5.30 to 6.30,"N#Cc1ccc(NS(=O)(=O)c2c[nH]c(-c3ccccc3)c2)c(Cl)c1 [Cpd 036, N-(2-chloro-4-cyano-phenyl)-5-phenyl-1H-pyrrole-3-sulfonamide]"
3,4.30 to 5.30,"N#Cc1ccc(NS(=O)(=O)c2c[nH]c(-c3ccccc3)c2)nc1 [Cpd 037, N-(5-cyano-2-pyridyl)-5-phenyl-1H-pyrrole-3-sulfonamide]"
4,> 6.30,"N#Cc1ccc(NS(=O)(=O)c2c[nH]c(-c3ccc(F)cc3F)c2)c(F)c1 [Cpd 038, N-(4-cyano-2-fluoro-phenyl)-5-(2,4-difluorophenyl)-1H-pyrrole-3-sulfonamide]"
5,> 6.30,"N#Cc1ccc(NS(=O)(=O)c2c[nH]c(-c3cccc(Cl)c3F)c2)c(F)c1 [Cpd 039, 5-(3-chloro-2-fluoro-phenyl)-N-(4-cyano-2-fluoro-phenyl)-1H-pyrrole-3-sulfonamide]"
6,> 6.30,"N#Cc1ccc(NS(=O)(=O)c2c[nH]c(-c3cccc(F)c3F)c2)c(F)c1 [Cpd 040, N-(4-cyano-2-fluoro-phenyl)-5-(2,3-difluorophenyl)-1H-pyrrole-3-sulfonamide]"
7,> 6.30,"N#Cc1ccc(NS(=O)(=O)c2c[nH]c(-c3cc(F)ccc3F)c2)c(F)c1 [Cpd 041, N-(4-cyano-2-fluoro-phenyl)-5-(2,5-difluorophenyl)-1H-pyrrole-3-sulfonamide]"
8,> 6.30,"Cc1cccc(-c2cc(S(=O)(=O)Nc3ccc(C#N)cc3F)c[nH]2)c1F [Cpd 042, N-(4-cyano-2-fluoro-phenyl)-5-(2-fluoro-3-methyl-phenyl)-1H-pyrrole-3-sulfonamide]"
9,5.30 to 6.30,"Cc1ccc(-c2cc(S(=O)(=O)Nc3ccc(C#N)cc3F)c[nH]2)c(F)c1 [Cpd 043, N-(4-cyano-2-fluoro-phenyl)-5-(2-fluoro-4-methyl-phenyl)-1H-pyrrole-3-sulfonamide]"
10,> 6.30,"Cc1ccc(F)c(-c2cc(S(=O)(=O)Nc3ccc(C#N)cc3F)c[nH]2)c1 [Cpd 044, N-(4-cyano-2-fluoro-phenyl)-5-(2-fluoro-5-methyl-phenyl)-1H-pyrrole-3-sulfonamide]"
11,5.30 to 6.30,"N#Cc1ccc(NS(=O)(=O)c2c[nH]c(-c3ccc(Cl)cc3F)c2)c(F)c1 [Cpd 045, 5-(4-chloro-2-fluoro-phenyl)-N-(4-cyano-2-fluoro-phenyl)-1H-pyrrole-3-sulfonamide]"
12,> 6.30,"N#Cc1ccc(NS(=O)(=O)c2c[nH]c(-c3cc(Cl)ccc3F)c2)c(F)c1 [Cpd 046, 5-(5-chloro-2-fluoro-phenyl)-N-(4-cyano-2-fluoro-phenyl)-1H-pyrrole-3-sulfonamide]"
13,5.30 to 6.30,"O=S(=O)(Nc1cc(F)c(F)cc1F)c1c[nH]c(-c2ccccc2F)c1 [Cpd 047, 5-(2-fluorophenyl)-N-(2,4,5-trifluorophenyl)-1H-pyrrole-3-sulfonamide]"
14,5.30 to 6.30,"O=S(=O)(Nc1ncc(Cl)cc1F)c1c[nH]c(-c2ccccc2F)c1 [Cpd 048, N-(5-chloro-3-fluoro-2-pyridyl)-5-(2-fluorophenyl)-1H-pyrrole-3-sulfonamide]"
15,5.30 to 6.30,"O=S(=O)(Nc1cccc2c1OCO2)c1c[nH]c(-c2ccccc2F)c1 [Cpd 049, N-(1,3-benzodioxol-4-yl)-5-(2-fluorophenyl)-1H-pyrrole-3-sulfonamide]"
16,> 6.30,"O=S(=O)(Nc1cccc2nsnc12)c1c[nH]c(-c2ccccc2F)c1 [Cpd 050, N-(2,1,3-benzothiadiazol-4-yl)-5-(2-fluorophenyl)-1H-pyrrole-3-sulfonamide]"
17,5.30 to 6.30,"O=S(=O)(Nc1cc(F)ccc1F)c1c[nH]c(-c2ccccc2F)c1 [Cpd 051, N-(2,5-difluorophenyl)-5-(2-fluorophenyl)-1H-pyrrole-3-sulfonamide]"
18,5.30 to 6.30,"O=S(=O)(Nc1ccc(Cl)cc1F)c1c[nH]c(-c2ccccc2F)c1 [Cpd 052, N-(4-chloro-2-fluoro-phenyl)-5-(2-fluorophenyl)-1H-pyrrole-3-sulfonamide]"
19,5.30 to 6.30,"N#CCc1ccc(NS(=O)(=O)c2c[nH]c(-c3ccccc3F)c2)c(F)c1 [Cpd 053, N-[4-(cyanomethyl)-2-fluoro-phenyl]-5-(2-fluorophenyl)-1H-pyrrole-3-sulfonamide]"

row,pIC50,Structure (SMILES)
1,4.30 to 5.30,"O=S(=O)(Nc1ccc(F)cc1F)c1c[nH]c(-c2ccccc2F)c1 [Cpd 054, N-(2,4-difluorophenyl)-5-(2-fluorophenyl)-1H-pyrrole-3-sulfonamide]"
2,5.30 to 6.30,"O=S(=O)(Nc1ccc(C(F)(F)F)cc1F)c1c[nH]c(-c2ccccc2F)c1 [Cpd 055, 5-(2-fluorophenyl)-N-[2-fluoro-4-(trifluoromethyl)phenyl]-1H-pyrrole-3-sulfonamide]"
3,4.30 to 5.30,"O=S(=O)(Nc1cccc(F)c1F)c1c[nH]c(-c2ccccc2F)c1 [Cpd 056, N-(2,3-difluorophenyl)-5-(2-fluorophenyl)-1H-pyrrole-3-sulfonamide]"
4,5.30 to 6.30,"Cc1ccc(NS(=O)(=O)c2c[nH]c(-c3ccccc3F)c2)c(F)c1 [Cpd 057, N-(2-fluoro-4-methyl-phenyl)-5-(2-fluorophenyl)-1H-pyrrole-3-sulfonamide]"
5,5.30 to 6.30,"N#Cc1ccc(NS(=O)(=O)c2c[nH]c(-c3ccccc3F)c2)cc1Cl [Cpd 058, N-(3-chloro-4-cyano-phenyl)-5-(2-fluorophenyl)-1H-pyrrole-3-sulfonamide]"
6,5.30 to 6.30,"COc1cc(NS(=O)(=O)c2c[nH]c(-c3ccccc3F)c2)ccc1C#N [Cpd 059, N-(4-cyano-3-methoxy-phenyl)-5-(2-fluorophenyl)-1H-pyrrole-3-sulfonamide]"
7,5.30 to 6.30,"COc1cc(C(F)(F)F)cnc1NS(=O)(=O)c1c[nH]c(-c2ccccc2F)c1 [Cpd 060, 5-(2-fluorophenyl)-N-[3-methoxy-5-(trifluoromethyl)pyridin-2-yl]-1H-pyrrole-3-sulfonamide]"
8,> 6.30,"COc1cc(CC#N)cnc1NS(=O)(=O)c1c[nH]c(-c2ccccc2)c1 [Cpd 061, N-[5-(cyanomethyl)-3-methoxypyridin-2-yl]-5-phenyl-1H-pyrrole-3-sulfonamide]"
9,5.30 to 6.30,"COc1cc(Br)cnc1NS(=O)(=O)c1c[nH]c(-c2ccccc2)c1 [Cpd 062, N-(5-bromo-3-methoxypyridin-2-yl)-5-phenyl-1H-pyrrole-3-sulfonamide]"
10,> 6.30,"COc1cc(C#N)c(F)cc1NS(=O)(=O)c1c[nH]c(-c2ccccc2)c1 [Cpd 063, N-(4-cyano-5-fluoro-2-methoxyphenyl)-5-phenyl-1H-pyrrole-3-sulfonamide]"
11,5.30 to 6.30,"N#Cc1cc(F)c(NS(=O)(=O)c2c[nH]c(-c3ccccc3)c2)c(F)c1 [Cpd 064, N-(4-cyano-2,6-difluoro-phenyl)-5-phenyl-1H-pyrrole-3-sulfonamide]"
12,> 6.30,"N#CCOc1cc(F)c(NS(=O)(=O)c2c[nH]c(-c3ccccc3)c2)cc1F [Cpd 065, N-[4-(cyanomethoxy)-2,5-difluoro-phenyl]-5-phenyl-1H-pyrrole-3-sulfonamide]"
13,5.30 to 6.30,"N#Cc1ccc(NS(=O)(=O)c2c[nH]c(-c3ccncc3F)c2)c(F)c1 [Cpd 066, N-(4-cyano-2-fluoro-phenyl)-5-(3-fluoro-4-pyridyl)-1H-pyrrole-3-sulfonamide]"
14,4.30 to 5.30,"Cc1[nH]cc(S(=O)(=O)Nc2ccc(C#N)cc2F)c1Cc1ccccc1 [Cpd 067, 4-benzyl-N-(4-cyano-2-fluorophenyl)-5-methyl-1H-pyrrole-3-sulfonamide]"
15,> 6.30,"O=S(=O)(Nc1ncc(Cl)cc1F)c1c[nH]c(-c2ccccc2)c1 [Cpd 068, N-(5-chloro-3-fluoro-2-pyridyl)-5-phenyl-1H-pyrrole-3-sulfonamide]"
16,5.30 to 6.30,"O=S(=O)(Nc1cccc2c1OCO2)c1c[nH]c(-c2ccccc2)c1 [Cpd 069, N-(1,3-benzodioxol-4-yl)-5-phenyl-1H-pyrrole-3-sulfonamide]"
17,> 6.30,"Cc1cc(F)c(NS(=O)(=O)c2c[nH]c(-c3ccccc3)c2)cc1F [Cpd 070, N-(2,5-difluoro-4-methyl-phenyl)-5-phenyl-1H-pyrrole-3-sulfonamide]"
18,> 6.30,"O=S(=O)(Nc1cc(F)c(C(F)(F)F)cc1F)c1c[nH]c(-c2ccccc2)c1 [Cpd 071, N-[2,5-difluoro-4-(trifluoromethyl)phenyl]-5-phenyl-1H-pyrrole-3-sulfonamide]"
19,> 6.30,"N#Cc1ccc(NS(=O)(=O)c2c[nH]c(-c3ccccc3F)c2)cc1F [Cpd 072, N-(4-cyano-3-fluoro-phenyl)-5-(2-fluorophenyl)-1H-pyrrole-3-sulfonamide]"
